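Exposure lasted 48 hours, with cells grown in 96-well plates and compounds tested at five concentrations. Here, GI50 denotes the concentration required for 50% inhibition of growth.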 Calls of active or inactive are those of the source. No stated cut-off is given here; in the data, active = GI50 up to about 1.1 µM and inactive = higher.
Key:
Test in all cases: DTP human tumour cell line panel, 48 h
DU-145 = tested on: DU-145
SK-MEL-28 = tested on: SK-MEL-28
K562 = tested on: K562
SR = tested on: SR
SNB-75 = tested on: SNB-75
UO-31 = tested on: UO-31
NCI-H460 = tested on: NCI-H460
UACC-62 = tested on: UACC-62
HCT-15 = tested on: HCT-15
MDA-N = tested on: MDA-N
Hs-578T = tested on: Hs-578T
MDA-MB-435 = tested on: MDA-MB-435
OVCAR-3 = tested on: OVCAR-3
UACC-257 = tested on: UACC-257
MDA-MB-231 = tested on: MDA-MB-231
RXF 393 = tested on: RXF 393
TK-10 = tested on: TK-10
IGROV-1 = tested on: IGROV-1
MOLT-4 = tested on: MOLT-4
NCI/ADR-RES = tested on: NCI/ADR-RES

SMILES | GI50 (DU-145) | GI50 (SK-MEL-28) | GI50 (K562) | GI50 (SR) | GI50 (SNB-75) | GI50 (UO-31) | GI50 (NCI-H460) | GI50 (UACC-62) | GI50 (HCT-15) [µM] | GI50 (MDA-N) | GI50 (Hs-578T) | GI50 (MDA-MB-435) | GI50 (OVCAR-3) | GI50 (UACC-257) | GI50 (MDA-MB-231) | GI50 (RXF 393) | GI50 (TK-10) | GI50 (IGROV-1) | GI50 (MOLT-4) | GI50 (NCI/ADR-RES)
CCOC(=O)CCC1(C(=O)O[C@@H]2C[C@H](C)CC[C@H]2C(C)C)CCCCC1=O (stereo not given in full) | > 100 µM (inactive) | 74 µM (inactive) | 28.1 µM (inactive) | 41.2 µM (inactive) | 42 µM (inactive) | > 100 µM (inactive) | 36.6 µM (inactive) | 94.6 µM (inactive) | 41.7 | 79.4 µM (inactive) | > 100 µM (inactive) | 74.1 µM (inactive) | 45.8 µM (inactive) | 23.3 µM (inactive) | > 100 µM (inactive) | 55.7 µM (inactive) | 56.4 µM (inactive) | > 100 µM (inactive) | 29.2 µM (inactive) | 55.2 µM (inactive)
COc1ccccc1NC(=O)CC(=O)n1nc(C)c(/N=N/c2ccccc2Cl)c1C | > 100 µM (inactive) | > 100 µM (inactive) | > 90.2 µM (inactive) | > 72.4 µM (inactive) | 25.5 µM (inactive) | > 100 µM (inactive) | > 100 µM (inactive) | > 100 µM (inactive) | > 100 | > 31.6 µM (inactive) | > 100 µM (inactive) | > 100 µM (inactive) | > 100 µM (inactive) | > 91.4 µM (inactive) | > 100 µM (inactive) | > 100 µM (inactive) | > 100 µM (inactive) | > 100 µM (inactive) | 80.2 µM (inactive) | > 100 µM (inactive)
Oc1c(C2=NNC(c3cccs3)C2)ccc2ccccc12 (stereo not given) | 20.9 µM (inactive) | 36 µM (inactive) | 17.9 µM (inactive) | 8.89 µM (inactive) | 21.3 µM (inactive) | 32.4 µM (inactive) | 14.8 µM (inactive) | 15.6 µM (inactive) | 18.2 | 16.5 µM (inactive) | 17.1 µM (inactive) | 18.3 µM (inactive) | 18 µM (inactive) | 30.1 µM (inactive) | 26.1 µM (inactive) | 42.6 µM (inactive) | 28.1 µM (inactive) | 14.5 µM (inactive) | 10.1 µM (inactive) | 21.9 µM (inactive)
COc1cc2c(c3oc4c(O)cccc4c(=O)c13)CC(C(C)(O)CCl)O2 (stereo not given) | 2.31 µM (inactive) | 0.968 µM (active) | 0.0242 µM (active) | < 0.0338 µM (active) | 3.35 µM (inactive) | 0.807 µM (active) | 2.64 µM (inactive) | 0.728 µM (active) | 1.04 | 0.51 µM (active) | 2.03 µM (inactive) | 0.13 µM (active) | 1.21 µM (inactive) | 1.98 µM (inactive) | 1.55 µM (inactive) | 0.834 µM (active) | 12.1 µM (inactive) | 2.03 µM (inactive) | < 0.01 µM (active) | 0.679 µM (active)
CC(C)=CC1CC(C)C2(CCC3(C)CC4C(C(=O)CC4(C)O)/C(C=O)=C\CC32)O1 (stereo not given) | 0.129 µM (active) | 0.104 µM (active) | 0.0614 µM (active) | 0.03 µM (active) | 0.142 µM (active) | 0.0355 µM (active) | 0.133 µM (active) | 0.169 µM (active) | 0.0243 | 0.112 µM (active) | 0.13 µM (active) | 0.0617 µM (active) | 0.0224 µM (active) | 0.12 µM (active) | 0.0968 µM (active) | 0.0373 µM (active) | 0.0235 µM (active) | 0.144 µM (active) | < 0.0153 µM (active) | 0.11 µM (active)
CC(/C=C/C=C\C=C\C=C(/C)C(=O)NC(C)CO)=C\C(C)C(O)/C(C)=C/C(C)CCc1ccccc1 (stereo not given) | 13.8 µM (inactive) | 12.9 µM (inactive) | 0.364 µM (active) | 1.14 µM (inactive) | 13 µM (inactive) | 5.11 µM (inactive) | 3.85 µM (inactive) | 8.61 µM (inactive) | 12.8 | 12.2 µM (inactive) | 19.3 µM (inactive) | 12.8 µM (inactive) | 1.4 µM (inactive) | 0.0359 µM (active) | 14.6 µM (inactive) | 12.9 µM (inactive) | 14 µM (inactive) | 11.1 µM (inactive) | 7.46 µM (inactive) | 15.6 µM (inactive)
COc1ccc(C(C#N)NC23CC4CC(CC(C4)C2)C3)cc1 (stereo not given) | > 100 µM (inactive) | > 100 µM (inactive) | > 100 µM (inactive) | > 100 µM (inactive) | > 100 µM (inactive) | > 100 µM (inactive) | > 100 µM (inactive) | > 100 µM (inactive) | > 100 | > 100 µM (inactive) | > 100 µM (inactive) | > 100 µM (inactive) | > 100 µM (inactive) | > 100 µM (inactive) | > 100 µM (inactive) | > 100 µM (inactive) | > 100 µM (inactive) | > 100 µM (inactive) | > 100 µM (inactive) | > 100 µM (inactive)
CSC12c3cc(C)n(-c4ccc(I)cc4)c3CC(C)(C)CN1C(=O)C2Oc1ccccc1 (stereo not given) | > 100 µM (inactive) | > 100 µM (inactive) | > 87.1 µM (inactive) | > 91.2 µM (inactive) | > 100 µM (inactive) | > 100 µM (inactive) | > 100 µM (inactive) | > 100 µM (inactive) | > 100 | > 100 µM (inactive) | > 100 µM (inactive) | > 100 µM (inactive) | > 100 µM (inactive) | > 66.5 µM (inactive) | > 100 µM (inactive) | > 100 µM (inactive) | > 100 µM (inactive) | > 100 µM (inactive) | > 63.1 µM (inactive) | > 100 µM (inactive)
CCOC(=O)/C(C#N)=C1\c2c([nH]c(=S)[nH]c2=O)Oc2ccc3ccccc3c21 | 78.9 µM (inactive) | 1.46 µM (inactive) | > 100 µM (inactive) | 49.1 µM (inactive) | 23.3 µM (inactive) | 20 µM (inactive) | 0.0857 µM (active) | 24.4 µM (inactive) | 71.6 | 51.2 µM (inactive) | 76.6 µM (inactive) | 43.2 µM (inactive) | 23.7 µM (inactive) | > 100 µM (inactive) | 24.8 µM (inactive) | 36.2 µM (inactive) | 39.9 µM (inactive) | > 100 µM (inactive) | 11.2 µM (inactive) | 59.3 µM (inactive)
O=C1C(N2CCN(c3ccccn3)CC2)=C(Cl)C(=O)c2ncccc21 | > 6.76 µM (inactive) | 2.89 µM (inactive) | 1.51 µM (inactive) | 2.28 µM (inactive) | > 10 µM (inactive) | 3.27 µM (inactive) | > 10 µM (inactive) | 2.54 µM (inactive) | 1.95 | 1.66 µM (inactive) | > 4.49 µM (inactive) | > 3.74 µM (inactive) | 1.89 µM (inactive) | 2.96 µM (inactive) | 3.63 µM (inactive) | 1.98 µM (inactive) | 3.24 µM (inactive) | > 7 µM (inactive) | 1.83 µM (inactive) | 5.22 µM (inactive)
Cc1cs/c(=N\C(P(=O)(O)O)P(=O)(O)O)n1C | > 100 µM (inactive) | > 100 µM (inactive) | > 100 µM (inactive) | > 100 µM (inactive) | > 100 µM (inactive) | > 100 µM (inactive) | > 100 µM (inactive) | > 100 µM (inactive) | > 100 | > 100 µM (inactive) | 10.1 µM (inactive) | > 100 µM (inactive) | > 100 µM (inactive) | > 100 µM (inactive) | > 100 µM (inactive) | > 100 µM (inactive) | > 100 µM (inactive) | > 100 µM (inactive) | > 100 µM (inactive) | > 100 µM (inactive)
C[C@@H]1OCC(O)C([C@H]2OC(c3ccccc3)=N[C@H]2CO)O1 (stereo not given in full) | > 100 µM (inactive) | > 100 µM (inactive) | > 100 µM (inactive) | > 100 µM (inactive) | 72.1 µM (inactive) | > 100 µM (inactive) | > 100 µM (inactive) | > 100 µM (inactive) | > 100 | > 100 µM (inactive) | > 100 µM (inactive) | > 100 µM (inactive) | > 100 µM (inactive) | > 100 µM (inactive) | > 100 µM (inactive) | > 100 µM (inactive) | > 100 µM (inactive) | > 100 µM (inactive) | > 100 µM (inactive) | > 100 µM (inactive)
C=C(C)C1CCC2(C)C1CCC1(C)C2CCC2C3(C)C4OC(OC4=O)C(C)(C)C3CCC21C (stereo not given) | > 100 µM (inactive) | > 100 µM (inactive) | 33 µM (inactive) | > 100 µM (inactive) | > 100 µM (inactive) | > 100 µM (inactive) | > 100 µM (inactive) | > 100 µM (inactive) | > 100 | > 100 µM (inactive) | > 100 µM (inactive) | > 100 µM (inactive) | > 100 µM (inactive) | > 100 µM (inactive) | > 100 µM (inactive) | > 100 µM (inactive) | > 100 µM (inactive) | > 100 µM (inactive) | > 100 µM (inactive) | > 100 µM (inactive)
C=C1C[C@@H](O)[C@@H](Br)C(C)(C)[C@@]12C=CC(=O)CC2 | > 100 µM (inactive) | > 100 µM (inactive) | > 100 µM (inactive) | > 100 µM (inactive) | > 63.2 µM (inactive) | > 96.4 µM (inactive) | > 100 µM (inactive) | > 100 µM (inactive) | > 100 | > 100 µM (inactive) | > 100 µM (inactive) | > 100 µM (inactive) | > 100 µM (inactive) | > 100 µM (inactive) | > 100 µM (inactive) | > 100 µM (inactive) | 12.6 µM (inactive) | 3.58 µM (inactive) | > 100 µM (inactive) | > 100 µM (inactive)
